Test results from PMC8851282, “Senolysis induced by 25-hydroxycholesterol targets CRYAB in multiple cell types” (iScience, 2022).

Legend:
SCs = experiment: Cell viability assay (cell counting kit-8) of senescent and non-senescent SCs treated with inhibitors; type: cell-based, mouse
Description: Figure 3 25HC is a senolytic in multiple muscle cell types (A) Targets, compounds, and mechanisms. (B) Timeline of cell viability assay with inhibitors. Cells were pre-cultured for 24 h, treated with Doxo for 24 h, and then treated with inhibitors. Cell viability was analyzed from day 0–7. (C–E) Effects of inhibitors on viability of FAPs, SCs, and HSMMs. Cells were treated with inhibitors at the indicated concentrations. Cell viability was analyzed on day 3 (HSMMs) or 5 (FAPs and SCs). Blue and red dots indicate non-senescent (NS) and senescent (SEN), respectively. The average value at 0 μM for each group was set at 100% cell viability. p values versus NS were obtained using unpaired two-tailed Student’s t test. ∗p < 0.05, ∗∗p < 0.01, and ∗∗∗p < 0.001.
Figure 4 EC50 fitted curves (triplicates) of inhibitor effects at 3 and 7 days in FAPS and SCs EC50 was defined as the concentration of inhibitors that provokes a response halfway between baseline and maximum senolytic activity. EC50 values were determined by four- parameter logistic modeling using GraphPad Prism 8.0.
Hind limb muscles were digested in DMEM containing 0.5% (w/v) collagenase type II (Worthington) for 90 min at 37 °C with trituration and passed through a 40-μm nylon mesh. Erythrocytes were eliminated by treating with BD Pharm Lyse (BD Biosciences). Cells were resuspended in a washing buffer of PBS with 2% FBS and stained with antibodies for 30 min at 4 °C as described ([Kamizaki et al., 2017]). FAPs and SCs were isolated from the suspension by FACS (Aria II, BD Biosciences) using anti-CD31, CD45, Sca-1, PDGFR and VCAM1 antibodies. FAPs were identified as Sca1/PDGFR-positive and CD31-, CD45- and VCAM1-negative cells ([Uezumi et al., 2010]). SCs were identified as VCAM1-positive and CD31-, CD45-, Sca-1 and PDGFR-negative cells ([Liu et al., 2015]).
All experiments were performed in incubators at 37 °C, 3% O2 and 5% CO2. Senescence was induced by treatment with either Doxo (250 nM for 24 h) ([Demaria et al., 2017]) or X-irradiation (10 Gy) ([Limbad et al., 2020]). For cell culture studies using 25HC, it was used at the indicated concentrations in the media.
FAPs and SCs were cultured on Matrigel-coated dishes (BD Biosciences) in growth medium (GM) consisting of DMEM plus 10% FBS, 1% penicillin-streptomycin and 10% MyoCult (STEMCELL Technologies) for 7 days. Human myogenic cell HSMMs (Lonza) were maintained according to the manufacturer’s instructions with SkGM-2 medium (Lonza).
Cell viability was assessed using a cell counting kit-8 from Dojindo Molecular Technologies, Inc (Cat CK04-20). Cells were incubated with culture media + 10% kit cell viability reagent, 150 μL/well in 96-well plates for 2 h. The supernatant was transferred to a new 96-well plate and absorbance read at 450 nm as recommended in the product datasheet.

[1] = tested on: Cdkn1a and Cryab mRNA in gastrocnemius and soleus muscles; experiment: qRT-PCR of senescence markers and Cryab in muscles of Doxo-treated mice given 25HC; type: in vivo, mouse; conditions: Doxo-treated male mice, 25HC 50 mg/kg i.p. for 7 consecutive days
Description: (§1) Figure 8 25HC induces senolysis in vivo in Doxo-treated mice (A) Timeline of 25HC treatment in Doxo-treated mice. Mice were given 4 mg/kg Doxo or PBS for 5 daily injections[A1], then injected with 25HC or vehicle for 7 consecutive days. (B) Mass of gastrocnemius muscles. Muscle weight was normalized to body weight. (C) Cdkn2a and Cryab mRNA levels in gastrocnemius (Gastroc) and soleus (Sol) muscles. RNA was collected 28–30 d after the first treatment with Doxo. mRNA levels were quantified by qRT-PCR, and normalized to actin mRNA levels. The average value of PBS-vehicle was set at 1. (D) 15-d-PGJ2 analysis in urine. Urine was collected at 24 h after the first treatment with 25HC or HbCD. p values versus PBS-Veh or Doxo-Veh are obtained using Tukey's multiple comparisons test. ∗p < 0.05, ∗∗p < 0.01, p < 0.001, and ∗∗∗∗p < 0.0001.
Male C57BL/6J mice (3–4 months old) were purchased from the Jackson Laboratory. We performed five i.p. injections with 4 mg/kg of Doxo (Tocris Bioscience, Product# 2252) for each injection over 10 days (Figure 6A). Therefore, we injected a total of 20 mg/kg of Doxo/mouse over 10 days. We used EFT-PBS (EMD Millipore, Product# TMS-012-A) as a control. To test effects of 25HC (Tocris Bioscience, Product# 5741) on Doxo-treated mice, we prepared three experimental groups (n=15 for each group): 1) PBS+HβCD vehicle (22.5%), 2) Doxo (20 mg/kg)+vehicle (22.5%), 3) Doxo (20 mg/kg)+25HC (50 mg/kg) (Figure 6A); 25HC was dissolved in 22.5% 2-hydroxypropyl-beta-cyclodextrin (HβCD) (Tocris Bioscience, Product 0708). On the Day 5 after the last Doxo/PBS injections, the mice were treated with either 25HC (50 mg/kg) or vehicle by i.p. injections for 7 consecutive days (Figure 6A). 12 hr after the first 25HC or vehicle treatments, urine was collected (Figure 6A) from each group to test for the senolysis marker 15-d-PGJ2. […] Senescence markers p16^INK4a, p21^Cip1 and CRYAB expression was analyzed on gastrocnemius (Gastroc), soleus (So), tibialis anterior (TA), visceral fat (VF), kidney (Ki), liver (Li), lung (Lu), heart (He), and skin (Sk) samples by qRT-PCR. […]

15-d-PGJ2 = 15-d-PGJ2 ELISA in urine of Doxo-treated mice given 25HC; type: in vivo, mouse; conditions: urine collected after the first treatment with 25HC 50 mg/kg i.p. (24 h per Figure 8, 12 hr per methods)
Description: as §1, with “Urine was collected at 24 h after the first treatment with 25HC or HbCD. p values versus PBS-Veh or Doxo-Veh are obtained using Tukey's multiple comparisons test. ∗p < 0.05, ∗∗p < 0.01, p < 0.001, and ∗∗∗∗p < 0.0001.” left out
Male C57BL/6J mice (3–4 months old) were purchased from the Jackson Laboratory. […] Senescence markers p16^INK4a, p21^Cip1 and CRYAB expression was analyzed on gastrocnemius (Gastroc), soleus (So), tibialis anterior (TA), visceral fat (VF), kidney (Ki), liver (Li), lung (Lu), heart (He), and skin (Sk) samples by qRT-PCR.
Urine was collected at 12 or 24 h after the first treatment with 25HC or vehicle and diluted 10-fold with assay buffer. The amount of 15-d-PGJ2 was measured using a 15-deoxy-Δ^12,14-PGJ2 ELISA kit according to manufactures’ protocol (Enzo Life Sciences).

Compound: C[C@H](CCCC(C)(C)O)[C@H]1CC[C@H]2[C@@H]3CC=C4C[C@@H](O)CC[C@]4(C)[C@H]3CC[C@]12C [25HC, 25-hydroxycholesterol]
- viability of senescent versus non-senescent SCs (SCs; Doxo-induced senescence, viability on day 5): decreased the viability of senescent SCs
- IC50 (SCs; Mus musculus, 168 h, SCs, 7 days in culture): 3.7 µM
- Cryab mRNA levels in muscle [1]: reduced
- Cdkn1a mRNA in gastrocnemius and soleus ([1]; versus Doxo + vehicle): significantly decreased
- 15-d-PGJ2 levels in urine (15-d-PGJ2): increased significantly
